Measured values as given in ChEMBL document CHEMBL1139308, “Identification and synthesis of 2,7-diamino-thiazolo[5,4-d]pyrimidine derivatives as TRPV1 antagonists” (Bioorg Med Chem Lett, 2009).
Values after ≈ are worked out from the molar mass of the structure shown. Active and inactive are the calls of the source. The rule behind the calls is not given here.

How the values were obtained:
[1] = molecular target: T1, Transient receptor potential cation channel subfamily V member 1 (Homo sapiens, UniProt Q8NER1); assay: Antagonist activity at human TRPV1 expressed in HEK293 cells assessed as inhibition of capsaicin-induced calcium flux; assay type: functional, cell-based
T1 sequence (Q8NER1 whole entry): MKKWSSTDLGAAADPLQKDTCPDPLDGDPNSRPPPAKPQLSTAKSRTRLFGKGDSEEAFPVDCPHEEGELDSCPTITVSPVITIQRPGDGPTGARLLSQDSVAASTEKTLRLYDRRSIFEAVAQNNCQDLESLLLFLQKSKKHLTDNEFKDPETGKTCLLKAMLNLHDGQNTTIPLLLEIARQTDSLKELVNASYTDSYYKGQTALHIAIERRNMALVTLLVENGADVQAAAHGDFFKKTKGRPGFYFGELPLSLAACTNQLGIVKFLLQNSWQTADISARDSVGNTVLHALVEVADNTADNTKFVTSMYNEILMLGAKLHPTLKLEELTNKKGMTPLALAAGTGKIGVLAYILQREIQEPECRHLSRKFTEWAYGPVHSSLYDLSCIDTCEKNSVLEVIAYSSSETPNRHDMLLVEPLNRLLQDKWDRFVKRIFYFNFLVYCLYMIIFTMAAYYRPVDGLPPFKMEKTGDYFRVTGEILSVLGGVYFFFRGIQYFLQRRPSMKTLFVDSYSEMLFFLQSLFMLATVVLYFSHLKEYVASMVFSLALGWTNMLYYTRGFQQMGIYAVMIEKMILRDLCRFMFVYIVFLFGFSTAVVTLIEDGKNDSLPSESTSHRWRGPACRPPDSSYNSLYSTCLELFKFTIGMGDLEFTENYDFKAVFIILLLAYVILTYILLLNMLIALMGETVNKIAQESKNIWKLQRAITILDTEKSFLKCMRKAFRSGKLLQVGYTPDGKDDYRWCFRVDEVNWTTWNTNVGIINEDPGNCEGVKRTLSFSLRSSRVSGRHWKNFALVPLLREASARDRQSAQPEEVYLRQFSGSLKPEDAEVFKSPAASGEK

[2] = molecular target: T2, Transient receptor potential cation channel subfamily V member 1 (Rattus norvegicus, UniProt O35433); assay: Antagonist activity at rat TRPV1 expressed in HEK293 cells assessed as inhibition of capsaicin-induced calcium flux; assay type: functional, cell-based
T2 sequence (O35433 whole entry): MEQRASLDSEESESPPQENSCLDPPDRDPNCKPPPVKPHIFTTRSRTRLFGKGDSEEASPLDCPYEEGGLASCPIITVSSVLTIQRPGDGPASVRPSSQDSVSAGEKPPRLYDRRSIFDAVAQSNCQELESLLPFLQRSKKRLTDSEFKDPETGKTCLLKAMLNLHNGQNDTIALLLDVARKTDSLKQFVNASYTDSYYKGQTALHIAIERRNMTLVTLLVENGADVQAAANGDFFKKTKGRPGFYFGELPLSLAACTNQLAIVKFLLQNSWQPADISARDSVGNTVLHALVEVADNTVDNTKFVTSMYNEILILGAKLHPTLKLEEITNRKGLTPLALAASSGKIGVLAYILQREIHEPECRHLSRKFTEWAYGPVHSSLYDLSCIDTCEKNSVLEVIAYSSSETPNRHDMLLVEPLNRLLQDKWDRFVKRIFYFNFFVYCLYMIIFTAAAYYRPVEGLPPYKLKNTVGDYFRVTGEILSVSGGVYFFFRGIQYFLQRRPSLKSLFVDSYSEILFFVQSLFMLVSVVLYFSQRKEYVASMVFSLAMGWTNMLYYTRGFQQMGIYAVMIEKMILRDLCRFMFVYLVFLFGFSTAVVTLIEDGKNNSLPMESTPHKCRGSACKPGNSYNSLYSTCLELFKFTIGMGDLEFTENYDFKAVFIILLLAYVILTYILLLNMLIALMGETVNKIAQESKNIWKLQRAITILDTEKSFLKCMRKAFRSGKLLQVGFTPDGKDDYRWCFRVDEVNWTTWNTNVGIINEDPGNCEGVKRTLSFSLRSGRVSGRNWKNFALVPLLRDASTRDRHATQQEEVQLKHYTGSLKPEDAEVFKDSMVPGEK

Rattus norvegicus [3] = assay: AUC (infinity) in fasted Sprague-Dawley rat at 2 mg/kg, po; assay type: ADME, organism-based, Plasma; parameters: time infinity, dose 2 mg/kg, route oral; conditions: in vivo
[4] = Cmax in fasted Sprague-Dawley rat at 2 mg/kg, po; assay type: ADME, organism-based; parameters: dose 2 mg/kg, route oral; conditions: in vivo
[5] = Volume of distribution at steady state in fasted Sprague-Dawley rat at 0.5 mg/kg, iv and 2 mg/kg, po; assay type: ADME, organism-based; conditions: in vivo, read-out: Vdss
[6] = Bioavailability in fasted Sprague-Dawley rat at 0.5 mg/kg, iv and 2 mg/kg, po; assay type: ADME, organism-based; conditions: in vivo
[7] = Half life in fasted Sprague-Dawley rat at 0.5 mg/kg, iv and 2 mg/kg, po; assay type: ADME, organism-based; conditions: in vivo
[8] = Clearance in fasted Sprague-Dawley rat at 0.5 mg/kg, iv and 2 mg/kg, po; assay type: ADME, organism-based; conditions: in vivo
[9] = Tmax in fasted Sprague-Dawley rat at 2 mg/kg, po; assay type: ADME, organism-based; parameters: dose 2 mg/kg, route oral; conditions: in vivo
Rattus norvegicus [10] = assay: Analgesic activity in rat model assessed as inhibition of carrageenan-induced thermal hyperalgesia at 1 mg/kg, po administered 1 hr prior carrageenan challenge relative to control; assay type: functional, organism-based; parameters: dose 1 mg/kg
[11] = Cmax in fasted Sprague-Dawley rat at 5 mg/kg, po; assay type: ADME, organism-based; parameters: dose 5 mg/kg, route oral; conditions: in vivo
Rattus norvegicus [12] = assay: Analgesic activity in rat model assessed as maximum degree of inhibition of carrageenan-induced thermal hyperalgesia at 3 mg/kg, po administered 1 hr prior carrageenan challenge measured after 4 hrs; assay type: functional; parameters: scale not given: the % may be the effect or the level left
Rattus norvegicus [13] = species on record: Rattus norvegicus; assay: Suppression of KCl-induced rat bladder contraction at 100 nM; assay type: functional, tissue-based; conditions: Urinary bladder
[14] = Aqueous solubility in fasted-state simulated intestinal fluid at pH 6.8 after 3 days by HPLC; assay type: physicochemical
[15] = Plasma concentration in carrageenan-induced thermal hyperalgesia rat model at 1 mg/kg, po after 5 hrs post-carrageenan injection; assay type: ADME, organism-based; parameters: dose 1 mg/kg, route oral
Rattus norvegicus [16] = assay: Analgesic activity in rat model assessed as inhibition of carrageenan-induced thermal hyperalgesia at 0.3 mg/kg, po administered 1 hr prior carrageenan challenge relative to control; assay type: functional, organism-based; parameters: dose 0.3 mg/kg
[17] = Half life in fasted Sprague-Dawley rat at 1 mg/kg, iv and 5 mg/kg, po; assay type: ADME, organism-based; conditions: in vivo
Rattus norvegicus [18] = assay: Bioavailability in fasted Sprague-Dawley rat at 1 mg/kg, iv and 5 mg/kg, po; assay type: ADME, organism-based; conditions: in vivo
Rattus norvegicus [19] = assay: Analgesic activity in po dosed rat model assessed as inhibition of carrageenan-induced thermal hyperalgesia administered 1 hr prior carrageenan challenge; assay type: functional
[20] = molecular target: T2, Transient receptor potential cation channel subfamily V member 1; assay: Displacement of [3H]RTX from rat TRPV1 expressed in HEK293 cells; assay type: cell-based
[21] = Tmax in fasted Sprague-Dawley rat at 5 mg/kg, po; assay type: ADME, organism-based; parameters: dose 5 mg/kg, route oral; conditions: in vivo
Rattus norvegicus [22] = assay: Analgesic activity in rat model assessed as inhibition of carrageenan-induced thermal hyperalgesia at 30 mg/kg, po administered 1 hr prior carrageenan challenge relative to control; assay type: functional, organism-based; parameters: dose 30 mg/kg
[23] = molecular target: T1, Transient receptor potential cation channel subfamily V member 1; assay: Antagonist activity at human TRPV1 expressed in HEK293 cells assessed as inhibition of low pH-induced calcium influx; assay type: functional, cell-based
[24] = Plasma concentration in carrageenan-induced thermal hyperalgesia rat model at 30 mg/kg, po after 5 hrs post-carrageenan injection; assay type: ADME, organism-based; parameters: dose 30 mg/kg, route oral
Rattus norvegicus [25] = assay: Clearance in fasted Sprague-Dawley rat at 1 mg/kg, iv and 5 mg/kg, po; assay type: ADME, organism-based; conditions: in vivo
[26] = Volume of distribution at steady state in fasted Sprague-Dawley rat at 1 mg/kg, iv and 5 mg/kg, po; assay type: ADME, organism-based; conditions: in vivo, read-out: Vdss
Rattus norvegicus [27] = assay: Analgesic activity against carrageenan-induced thermal hyperalgesia in po dosed rat model assessed as paw withdrawal latency; assay type: functional, organism-based
Rattus norvegicus [28] = assay: AUC (0 to infinity) in fasted Sprague-Dawley rat at 5 mg/kg, po; assay type: ADME, organism-based, Plasma; parameters: time infinity, dose 5 mg/kg, route oral; conditions: in vivo
[29] = molecular target: T2, Transient receptor potential cation channel subfamily V member 1; assay: Antagonist activity at rat TRPV1 expressed in HEK293 cells assessed as inhibition of low pH-induced calcium influx; assay type: functional, cell-based
[30] = Aqueous solubility in simulated gastric fluid at pH 1.2 after 3 days by HPLC; assay type: physicochemical
[31] = Plasma concentration in carrageenan-induced thermal hyperalgesia rat model at 3 mg/kg, po after 5 hrs post-carrageenan injection; assay type: ADME, organism-based; parameters: dose 3 mg/kg, route oral
[32] = molecular target: Transient receptor potential cation channel subfamily V member 1 (Rattus norvegicus) (UniProt O35433); assay: Antagonist activity at rat TRPV1 assessed as fold increase in EC50 of capsaicin-induced isometric contraction in rat bladder at 100 nM; assay type: functional
Transient receptor potential cation channel subfamily V member 1 (Rattus norvegicus), sequence (O35433 whole entry): as above

Rattus norvegicus [33] = assay: Analgesic activity in rat model assessed as inhibition of carrageenan-induced thermal hyperalgesia at 3 mg/kg, po administered 1 hr prior carrageenan challenge relative to control; assay type: functional, organism-based; parameters: dose 3 mg/kg
[34] = Plasma concentration in carrageenan-induced thermal hyperalgesia rat model at 0.3 mg/kg, po after 5 hrs post-carrageenan injection; assay type: ADME, organism-based; parameters: dose 0.3 mg/kg, route oral

Structure (SMILES): FC(F)(F)c1ccc(Nc2ncnc3sc(Nc4cccc(C(F)(F)F)c4)nc23)cc1
- IC50 [1]: > 5000 nM
- IC50 [2]: > 5000 nM

Structure (SMILES): FC(F)(F)c1ccccc1Nc1ncnc2sc(Nc3c(Cl)cccc3Cl)nc12
- IC50 [1]: > 5000 nM
- IC50 [2]: > 5000 nM

Structure (SMILES): FC(F)(F)c1ccc(Nc2nc(N3CCCC3)nc3sc(Nc4c(Cl)cccc4Cl)nc23)cc1
- IC50 [1]: 12 nM
- IC50 [2]: 36 nM

Structure (SMILES): CN(c1nc2c(Nc3ccc(C(F)(F)F)cc3)ncnc2s1)c1c(Cl)cccc1Cl
- IC50 [1]: 502 nM
- IC50 [2]: 540 nM

Structure (SMILES): O=C(O)c1cc(Cl)c(Nc2nc3c(Nc4ccc(C(F)(F)F)cc4)ncnc3s2)c(Cl)c1
- IC50 [1]: > 5000 nM
- IC50 [2]: > 5000 nM

Structure (SMILES): Cc1ccc(Nc2ncnc3sc(Nc4c(Cl)cccc4Cl)nc23)cc1
- IC50 [1]: 33 nM
- IC50 [2]: 32 nM

Structure (SMILES): CSc1ccccc1Nc1nc2c(Nc3ccc(C(F)(F)F)cc3)ncnc2s1
- IC50 [1]: 43 nM
- IC50 [2]: 26 nM

Structure (SMILES): Cc1cccc(C)c1Nc1nc2c(Nc3ccc(C(F)(F)F)cc3)ncnc2s1
- IC50 [1]: 23 nM

Structure (SMILES): FC(F)(F)c1ccc(Nc2ncnc3sc(Nc4c(Cl)cccc4Cl)nc23)cc1Cl
- IC50 [1]: 21 nM
- IC50 [2]: 9 nM

Structure (SMILES): CC(C)(C(=O)O)c1ccc(Nc2ncnc3sc(Nc4c(Cl)cccc4Cl)nc23)cc1
- IC50 [1]: 31 nM

Structure (SMILES): OCc1cc(Cl)c(Nc2nc3c(Nc4ccc(C(F)(F)F)cc4)ncnc3s2)c(Cl)c1
- AUC (Rattus norvegicus [3]): 638 ng·h/mL
- Cmax [4]: 200 nM
- Vd [5]: 2.9 L/kg
- bioavailability [6]: 45%
- IC50 [2]: 0.5 nM
- half-life [7]: 1.8 h
- clearance [8]: 23.3 mL/min/kg
- Tmax [9]: 4 h

Structure (SMILES): CSc1ccc(Nc2ncnc3sc(Nc4c(Cl)cccc4Cl)nc23)cc1
- IC50 [1]: 96 nM
- IC50 [2]: 12 nM

Structure (SMILES): CC(C)c1ccc(Nc2ncnc3sc(Nc4c(Cl)cccc4Cl)nc23)cc1
- IC50 [1]: 10 nM
- IC50 [2]: 3 nM

Structure (SMILES): FC(F)(F)c1ccc(Nc2nc(NCC3CC3)nc3sc(Nc4c(Cl)cccc4Cl)nc23)cc1
- IC50 [1]: 3 nM
- IC50 [2]: 3 nM

Structure (SMILES): Cc1ccccc1Nc1nc2c(Nc3ccc(C(F)(F)F)cc3)ncnc2s1
- IC50 [1]: 51 nM
- IC50 [2]: 14 nM

Structure (SMILES): CC(C)N1CCN(c2nc(Nc3ccc(C(F)(F)F)cc3)c3nc(Nc4c(Cl)cccc4Cl)sc3n2)CC1
- IC50 [2]: 119 nM

Structure (SMILES): FC(F)(F)c1ccc(Nc2nc(N3CCC3)nc3sc(Nc4c(Cl)cccc4Cl)nc23)cc1
- IC50 [1]: 59 nM
- IC50 [2]: 25 nM

Structure (SMILES): FC(F)(F)c1ccc(Nc2ncnc3sc(Nc4c(Cl)cccc4Cl)nc23)cc1
- Activity (Rattus norvegicus [10]): Active
- Cmax [11]: 1100 nM
- Activity (Rattus norvegicus [12]): 57%
- Activity (Rattus norvegicus [13]): inactive
- solubility at 72 h [14]: 2 µg/mL (≈ 4.38 µM)
- concentration at 5 h [15]: 58 nM
- Activity (Rattus norvegicus [16]): Active
- half-life [17]: 2.2 h
- F (Rattus norvegicus [18]): 43%
- ED50 (Rattus norvegicus [19]): 0.5 mg/kg
- Ki [20]: 4 nM
- Tmax [21]: 2 h
- Activity (Rattus norvegicus [22]): Active
- IC50 [23]: 19 nM
- concentration at 5 h [24]: 3050 nM
- CL (Rattus norvegicus [25]): 10 mL/min/kg
- Vd [26]: 1.6 L/kg
- Activity (Rattus norvegicus [27]): inactive
- AUC (Rattus norvegicus [28]): 10000 ng·h/mL
- IC50 [29]: 6 nM
- solubility at 72 h [30]: ≤ 1 µg/mL
- concentration at 5 h [31]: 428 nM
- fold change (FC) [32]: 6
- Activity (Rattus norvegicus [33]): Active
- concentration at 5 h [34]: 10 nM

Structure (SMILES): FC(F)(F)c1ccc(Nc2cccc3sc(Nc4c(Cl)cccc4Cl)nc23)cc1
- IC50 [1]: > 5000 nM
- IC50 [2]: > 5000 nM

Structure (SMILES): NCc1cc(Cl)c(Nc2nc3c(Nc4ccc(C(F)(F)F)cc4)ncnc3s2)c(Cl)c1
- IC50 [1]: 125 nM
- IC50 [2]: 54 nM

Structure (SMILES): Cc1cccc(Cl)c1Nc1nc2c(Nc3ccc(C(F)(F)F)cc3)ncnc2s1
- IC50 [1]: 9 nM
- IC50 [2]: 1.6 nM

Structure (SMILES): N#Cc1cc(Cl)c(Nc2nc3c(Nc4ccc(C(F)(F)F)cc4)ncnc3s2)c(Cl)c1
- IC50 [1]: 95 nM
- IC50 [2]: 53 nM

Structure (SMILES): CN(c1ccc(C(F)(F)F)cc1)c1ncnc2sc(Nc3c(Cl)cccc3Cl)nc12
- IC50 [1]: > 5000 nM
- IC50 [2]: > 1000 nM

Structure (SMILES): FC(F)(F)c1ccc(Nc2ncnc3c2CCN(c2ncccc2C(F)(F)F)C3)cc1
- IC50 [1]: 15 nM
- IC50 [2]: 71 nM

Structure (SMILES): FC(F)(F)c1ccc(Nc2ncnc3sc(Nc4ccccc4C(F)(F)F)nc23)cc1
- IC50 [1]: 74 nM
- IC50 [2]: 37 nM

Structure (SMILES): FC(F)(F)c1ccc(Nc2ncnc3nc(Nc4c(Cl)cccc4Cl)sc23)cc1
- IC50 [1]: 680 nM
- IC50 [2]: 864 nM

Structure (SMILES): NC(=O)c1cc(Cl)c(Nc2nc3c(Nc4ccc(C(F)(F)F)cc4)ncnc3s2)c(Cl)c1
- IC50 [1]: 69 nM
- IC50 [2]: 57 nM
